# Assay results: US10167262B2, “Herbicidal substituted 3-arylpyrazoles” (FMC CORPORATION, priority 2014, dated 2019)
# Assays:
# Format in all cases: in vivo
# soybean (Glycine max) = assay: Test C pre-/postemergence greenhouse test, plant response rating 0-100; conditions: Postemergence; for Plant response rating, Soybean: scale 0 to 100
# From the text: (§1) Seeds of plant species selected from blackgrass (Alopecurus myosuroides), Italian ryegrass (Lolium multiflorum), winter wheat (Triticum aestivum), galium (catchweed bedstraw, Galium aparine), corn (Zea mays), large (Lg) crabgrass (Digitaria sanguinalis), giant foxtail (Setaria faberii), johnsongrass (Sorghum halepense), lambsquarters (Chenopodium album), morningglory (Ipomoea coccinea), yellow nutsedge (Cyperus esculentus), pigweed (Amaranthus retroflexus), ragweed (common ragweed, Ambrosia elatior), soybean (Glycine max), barnyardgrass (Echinochloa crus-galli), oilseed rape (Brassica napus), waterhemp (common waterhemp, Amaranthus rudis), and velvetleaf (Abutilon theophrasti) were planted into a blend of loam soil and sand and treated preemergence with test chemicals formulated in a non-phytotoxic solvent mixture which included a surfactant.
# (§2) At the same time, plants selected from these crop and weed species and also winter barley (Hordeum vulgare), bermudagrass (Cynodon dactylon), downy bromegrass (Bromus tectorum), canarygrass (Phalaris minor), cocklebur (common cocklebur, Xanthium strumarium), woolly cupgrass (Eriochloa villosa), deadnettle (henbit deadnettle, Lamium amplexicaule), green foxtail (Setaria viridis), goosegrass (Eleusine indica), surinam grass (Brachiaria decumbens), windgrass (Apera spica-venti), chickweed (common chickweed, Stellaria media), kochia (Kochia scoparia), and wild oat (Avena fatua), were planted in pots containing Redi-Earth® planting medium (Scotts Company, 14111 Scottslawn Road, Marysville, Ohio 43041) comprising spaghnum peat moss, vermiculite, wetting agent and starter nutrients and treated with postemergence applications of test chemicals formulated in the same manner. Plants ranged in height from 2 to 18 cm (1- to 4-leaf stage) for postemergence treatments. Treated plants and controls were maintained in a greenhouse for 13 to 15 days, after which time all species were compared to controls and visually evaluated. Plant response ratings, summarized in Table C, are based on a scale of 0 to 100 where 0 is no effect and 100 is complete control. A dash (-) response means no test result.
# [1] = system: Italian ryegrass (Lolium multiflorum); assay: as above; conditions: Postemergence; for Plant response rating, Ryegrass, Italian: scale 0 to 100
# From the text: as §1, §2
# [2] = system: giant foxtail (Setaria faberii); assay: as above; conditions: Postemergence; for Plant response rating, Foxtail, Giant: scale 0 to 100
# From the text: as §1, §2
# wild oat (Avena fatua) = assay: Test C postemergence greenhouse test, plant response rating 0-100; conditions: for Plant response rating, Oat, Wild: scale 0 to 100
# From the text: as §2
# kochia (Kochia scoparia) = assay: as above; conditions: for Plant response rating, Kochia: scale 0 to 100
# From the text: as §2
# [3] = system: chickweed (common chickweed, Stellaria media); assay: as above; conditions: for Plant response rating, Chickweed: scale 0 to 100
# From the text: as §2
SMILES,"Plant response rating (0 to 100), Soybean (soybean (Glycine max); 62 g ai/ha)","Plant response rating (0 to 100), Soybean (soybean (Glycine max); 125 g ai/ha)","Plant response rating, Soybean (soybean (Glycine max); 250 g ai/ha)","Plant response rating, Soybean (soybean (Glycine max); 500 g ai/ha)","Plant response rating (0 to 100), Ryegrass, Italian ([1]; 62 g ai/ha)","Plant response rating (0 to 100), Ryegrass, Italian ([1]; 125 g ai/ha)","Plant response rating, Ryegrass, Italian ([1]; 250 g ai/ha)","Plant response rating, Ryegrass, Italian ([1]; 500 g ai/ha)","Plant response rating (0 to 100), Foxtail, Giant ([2]; 62 g ai/ha)","Plant response rating (0 to 100), Foxtail, Giant ([2]; 125 g ai/ha)","Plant response rating, Foxtail, Giant ([2]; 250 g ai/ha)","Plant response rating, Foxtail, Giant ([2]; 500 g ai/ha)","Plant response rating (0 to 100), Oat, Wild (wild oat (Avena fatua); 62 g ai/ha)","Plant response rating (0 to 100), Oat, Wild (wild oat (Avena fatua); 125 g ai/ha)","Plant response rating, Oat, Wild (wild oat (Avena fatua); 250 g ai/ha)","Plant response rating, Oat, Wild (wild oat (Avena fatua); 500 g ai/ha)","Plant response rating (0 to 100), Kochia (kochia (Kochia scoparia); 62 g ai/ha)","Plant response rating (0 to 100), Kochia (kochia (Kochia scoparia); 125 g ai/ha)","Plant response rating, Kochia (kochia (Kochia scoparia); 250 g ai/ha)","Plant response rating, Kochia (kochia (Kochia scoparia); 500 g ai/ha)",other results
Cn1cc(C(=O)c2cccs2)c(-c2cc(Cl)cc(Cl)c2)n1 [Compound 17],0,0,10,15,0,0,0,5,0,0,5,10,0,0,0,0,30,50,50,55,"Plant response rating (0 to 100), Chickweed ([3]; 62 g ai/ha): 10; Plant response rating (0 to 100), Chickweed ([3]; 125 g ai/ha): 65; Plant response rating, Chickweed ([3]; 250 g ai/ha): 85; Plant response rating, Chickweed ([3]; 500 g ai/ha): 85"
CCn1cc(C(=O)c2cccs2)c(-c2cc(Cl)cc(Cl)c2)n1 [Compound 18],5,15,20,20,0,0,0,5,5,10,15,20,0,0,0,0,20,40,45,60,"Plant response rating (0 to 100), Chickweed ([3]; 62 g ai/ha): 50; Plant response rating (0 to 100), Chickweed ([3]; 125 g ai/ha): 80; Plant response rating, Chickweed ([3]; 250 g ai/ha): 98; Plant response rating, Chickweed ([3]; 500 g ai/ha): 100"
